Source: ChEMBL document CHEMBL3885861, “Open TG-GATES”

Species on record: Rattus norvegicus
Experiment: Open TG-GATES - Regimen: Single
Type: toxicity, organism-based, Sprague-Dawley
Parameters: regimen Single, gender Male, age 6 weeks
Details: in vivo, po, 0 mg/kg, route gavage, dose level Control; for APTT / Bas / Eos / Fbg / Hb / Ht / Lym / MCH / MCHC / MCV / Mono / Neu / PT / Plat / RBC / Ret / WBC: tissue Blood; for KIDNEY_L / KIDNEY_R / KIDNEY_TOTAL: tissue Kidney; for LIVER: tissue Liver; for A/G / ALP / ALT / AST / BUN / CRE / Ca / Cl / DBIL / GLC / IP / K / LDH / Na / PL / RALB / TBIL / TC / TG / TP / gamma-GTP: tissue Plasma

Work on CCOC(=O)[C@H](CCc1ccccc1)N[C@@H](C)C(=O)N1CCC[C@H]1C(=O)O yielded a TERMINAL_BW (3 h) of 219.5 g, an APTT (3 h) of 16.4 s and a Bas (3 h) of 0%. For the same molecule, the Eos (3 h) was 1%, the Fbg (3 h) was 205.6 mg/dL and the Hb (3 h) was 13.1 g/dL. For the same molecule, the Ht (3 h) was 39.6%, the Lym (3 h) was 78.2% and the MCH (3 h) was 21.9 pg. For the same molecule, the MCHC (3 h) was 33%, the MCV (3 h) was 66.3 fL and the Mono (3 h) was 8.2%. For the same molecule, the Neu (3 h) was 13%, the PT (3 h) was 12.1 s and the Plat (3 h) was 115.4 x10_4/uL. The RBC (3 h) was 596.8 x10_4/ul, the Ret (3 h) was 9.2% and the WBC (3 h) was 96.8 x10_2/uL. It also gave a KIDNEY_L (3 h) of 1 g, a KIDNEY_R (3 h) of 1 g and a KIDNEY_TOTAL (3 h) of 2 g. The LIVER (3 h) was 10.5 g, the A/G (3 h) was 2.2 and the ALP (3 h) was 725.4 IU/L. The ALT (3 h) was 37.6 IU/L, the AST (3 h) was 66.2 IU/L and the BUN (3 h) was 13.8 mg/dL. It also gave a CRE (3 h) of 0.5 mg/dL, a Ca (3 h) of 11 mg/dL and a Cl (3 h) of 105.4 meq/L. It also gave a DBIL (3 h) of 0.008 mg/dL, a GLC (3 h) of 196.6 mg/dL and an IP (3 h) of 10.2 mg/dL. The K (3 h) was 4.8 meq/L, the LDH (3 h) was 79.2 IU/L and the Na (3 h) was 140.2 meq/L. The PL (3 h) was 146 mg/dL, the RALB (3 h) was 3.7 g/dL and the TBIL (3 h) was 0.3 mg/dL. It also gave a TC (3 h) of 77 mg/dL, a TG (3 h) of 70.8 mg/dL and a TP (3 h) of 5.3 g/dL. For the same molecule, the gamma-GTP (3 h) was 1.4 IU/L, the TERMINAL_BW (6 h) was 212.8 g and the APTT (6 h) was 16.4 s. It also gave a Bas (6 h) of 0%, an Eos (6 h) of 1% and a Fbg (6 h) of 205.2 mg/dL. It also gave a Hb (6 h) of 13.2 g/dL, a Ht (6 h) of 39.9% and a Lym (6 h) of 76.2%. It also gave an MCH (6 h) of 21.6 pg, an MCHC (6 h) of 33% and an MCV (6 h) of 65.4 fL. For the same molecule, the Mono (6 h) was 6.4%, the Neu (6 h) was 16.6% and the PT (6 h) was 12.2 s. For the same molecule, the Plat (6 h) was 116.2 x10_4/uL, the RBC (6 h) was 609.4 x10_4/ul and the Ret (6 h) was 8.4%. For the same molecule, the WBC (6 h) was 118.4 x10_2/uL, the KIDNEY_L (6 h) was 0.9 g and the KIDNEY_R (6 h) was 0.9 g. For the same molecule, the KIDNEY_TOTAL (6 h) was 1.9 g, the LIVER (6 h) was 9.5 g and the A/G (6 h) was 2.2. It also gave an ALP (6 h) of 837.6 IU/L, an ALT (6 h) of 34.6 IU/L and an AST (6 h) of 65.6 IU/L. The BUN (6 h) was 9.8 mg/dL, the CRE (6 h) was 0.5 mg/dL and the Ca (6 h) was 10.8 mg/dL. The Cl (6 h) was 105.2 meq/L, the DBIL (6 h) was 0.022 mg/dL and the GLC (6 h) was 198.6 mg/dL. The IP (6 h) was 9.9 mg/dL, the K (6 h) was 4.7 meq/L and the LDH (6 h) was 74 IU/L. It also gave a Na (6 h) of 139.4 meq/L, a PL (6 h) of 130.6 mg/dL and an RALB (6 h) of 3.7 g/dL. It also gave a TBIL (6 h) of 0.4 mg/dL, a TC (6 h) of 73 mg/dL and a TG (6 h) of 46.8 mg/dL. The TP (6 h) was 5.4 g/dL, the gamma-GTP (6 h) was 1.6 IU/L and the TERMINAL_BW (9 h) was 215 g. The APTT (9 h) was 16.5 s, the Bas (9 h) was 0% and the Eos (9 h) was 1.2%. It also gave a Fbg (9 h) of 215.4 mg/dL, a Hb (9 h) of 13 g/dL and a Ht (9 h) of 39.6%. For the same molecule, the Lym (9 h) was 81.4%, the MCH (9 h) was 21.9 pg and the MCHC (9 h) was 32.8%. It also gave an MCV (9 h) of 66.8 fL, a Mono (9 h) of 5% and a Neu (9 h) of 12.8%. The PT (9 h) was 11.7 s, the Plat (9 h) was 112.2 x10_4/uL and the RBC (9 h) was 593.2 x10_4/ul. The Ret (9 h) was 8.7%, the WBC (9 h) was 113.3 x10_2/uL and the KIDNEY_L (9 h) was 1 g. It also gave a KIDNEY_R (9 h) of 1 g, a KIDNEY_TOTAL (9 h) of 1.9 g and an LIVER (9 h) of 9.4 g. For the same molecule, the A/G (9 h) was 2.1, the ALP (9 h) was 772.2 IU/L and the ALT (9 h) was 31.2 IU/L. It also gave an AST (9 h) of 60.8 IU/L, a BUN (9 h) of 13.6 mg/dL and a CRE (9 h) of 0.4 mg/dL. For the same molecule, the Ca (9 h) was 10.7 mg/dL, the Cl (9 h) was 106.6 meq/L and the DBIL (9 h) was 0.022 mg/dL. It also gave a GLC (9 h) of 192.6 mg/dL, an IP (9 h) of 10.1 mg/dL and a K (9 h) of 4.8 meq/L. The LDH (9 h) was 69.8 IU/L, the Na (9 h) was 139 meq/L and the PL (9 h) was 133.4 mg/dL. It also gave an RALB (9 h) of 3.8 g/dL, a TBIL (9 h) of 0.4 mg/dL and a TC (9 h) of 69.6 mg/dL. The TG (9 h) was 49.2 mg/dL, the TP (9 h) was 5.5 g/dL and the gamma-GTP (9 h) was 1.6 IU/L. The TERMINAL_BW (24 h) was 230.9 g, the APTT (24 h) was 16.3 s and the Bas (24 h) was 0%. For the same molecule, the Eos (24 h) was 1.4%, the Fbg (24 h) was 203.8 mg/dL and the Hb (24 h) was 13.2 g/dL. For the same molecule, the Ht (24 h) was 39.8%, the Lym (24 h) was 71.6% and the MCH (24 h) was 21.6 pg. For the same molecule, the MCHC (24 h) was 33.1%, the MCV (24 h) was 65.3 fL and the Mono (24 h) was 8.2%. The Neu (24 h) was 19%, the PT (24 h) was 11.2 s and the Plat (24 h) was 117.1 x10_4/uL. The RBC (24 h) was 609.4 x10_4/ul, the Ret (24 h) was 8.3% and the WBC (24 h) was 114 x10_2/uL. It also gave a KIDNEY_L (24 h) of 1.1 g, a KIDNEY_R (24 h) of 1 g and a KIDNEY_TOTAL (24 h) of 2.1 g. The LIVER (24 h) was 11 g, the A/G (24 h) was 2.4 and the ALP (24 h) was 834.2 IU/L. For the same molecule, the ALT (24 h) was 39.8 IU/L, the AST (24 h) was 62.6 IU/L and the BUN (24 h) was 18 mg/dL. It also gave a CRE (24 h) of 0.5 mg/dL, a Ca (24 h) of 10.9 mg/dL and a Cl (24 h) of 106.4 meq/L. For the same molecule, the DBIL (24 h) was 0.012 mg/dL, the GLC (24 h) was 198.8 mg/dL and the IP (24 h) was 8.5 mg/dL. The K (24 h) was 5.2 meq/L, the LDH (24 h) was 86.4 IU/L and the Na (24 h) was 141 meq/L. The PL (24 h) was 155 mg/dL, the RALB (24 h) was 3.9 g/dL and the TBIL (24 h) was 0.4 mg/dL. For the same molecule, the TC (24 h) was 80 mg/dL, the TG (24 h) was 84.6 mg/dL and the TP (24 h) was 5.5 g/dL. It also gave a gamma-GTP (24 h) of 1.2 IU/L.
